Data: patent EP4810483A1, “6- AND 5-HETEROARYL DERIVATIVES AND USE THEREOF” (CMS Research & Development Pte. Ltd., priority 2023, dated 2025)
Like-named read-outs stand apart in the source and are kept apart here. Values belong to the compound of their own block, whether it stands above or below them.

Key:
[1] = biological target: T1, hKCNQ2/3 (Homo sapiens, UniProt O43525+O43526); experiment: cell-based
T1 construct: expressed in transfected cells; host or cells: CHO
Text: Test Method 1: hKCNQ2/3 Thallium Flux Assay
Test Objective: To test the in vitro concentration-response relationship of compounds using FLIPR thallium flux assay in CHO cell lines stably expressing hKCNQ2/3.
According to the split ratio, the cells were transferred to another T-75 flask containing complete cell growth medium. Note: To maintain logarithmic growth, the cells should be kept in a subconfluent monolayer state. Based on the cell doubling time, the cells were passaged every 2-3 days.
• (1) Day 1 - Cell preparation: Cells were digested as described above, and cell density and viability were determined using a Cell Countess. The volume of the single-cell suspension was adjusted with complete cell growth medium. Then, hKCNQ2/3_CHO cells were seeded onto PDL-precoated 384-well plates at a density of approximately 20,000 cells/well (30 µL/well). The plates were then incubated overnight in a 37°C, 5% CO2 humidified air incubator. • (2) Day 2 - Compound preparation: Test compounds were diluted with dimethyl sulfoxide (DMSO) to stock concentrations and stored in a -20°C freezer. A compound addition program was set up on the ECHO liquid handler, and compounds were added to the plates using the ECHO liquid handler. Retigabine (RTG) was used as a positive control at a highest concentration of 100 µM with 3-fold serial dilutions for a total of 9 doses. Buffer containing 5 mM K^+ and 1 mM Tl^+ was added to the plates. Notes: 1) K2SO4 and Tl2SO4 were prepared in 1× chloride-free buffer. Depending on the voltage-gated potassium channel involved, the concentrations of Tl^+ and K^+ should be adjusted. Tl^+ concentration is approximately 0.5-5 mM, and K^+ concentration is approximately 5-30 mM. 2) Each 1 mM solution of K2SO4 and Tl2SO4 contains 2 mM K^+ and Tl^+; the final concentration should be calculated based on the ion concentration. 3) TlCl readily precipitates and a chloride-free buffer is required. • (3) Day 2 -Assay testing: Once the cells reached the desired confluence, the cell assay plates were removed from the incubator. Assay buffer and diluted Tl^+ dye (Molecular Devices # R8222) were prepared. The medium was discarded using a Bravo liquid handler, and 25 µL of Tl^+ dye was added to each well. After 1 hour of incubation, the cell assay plates, composite plates and FLIPR tips were placed in the FLIPR^TETRA (Molecular Devices, USA) for FLIPR detection. After setting up the tips, baseline readings were taken for 60 seconds, then 12.5 µL was added from the composite plate (3×) to the cell assay plate, and data were recorded for at least 5 minutes. • (4) Data processing: Maximum signals were generated by the FLIPR software. […] Data quality control: S/B > 2.00, Z factor > 0.50.
• (1) Day 1 - Cell preparation: Cells were digested as described above, and cell density and viability were determined using a Cell Countess. The volume of the single-cell suspension was adjusted with complete cell growth medium. Then, hKCNQ2/3_CHO cells were seeded onto PDL-precoated 384-well plates at a density of approximately 20,000 cells/well (30 µL/well). The plates were then incubated overnight in a 37°C, 5% CO2 humidified air incubator. • (2) Day 2 - Compound preparation: Test compounds were diluted with dimethyl sulfoxide (DMSO) to stock concentrations and stored in a -20°C freezer. A compound addition program was set up on the ECHO liquid handler, and compounds were added to the plates using the ECHO liquid handler. Retigabine (RTG) was used as a positive control at a highest concentration of 100 µM with 3-fold serial dilutions for a total of 9 doses. Buffer containing 5 mM K^+ and 1 mM Tl^+ was added to the plates. Notes: 1) K2SO4 and Tl2SO4 were prepared in 1× chloride-free buffer. Depending on the voltage-gated potassium channel involved, the concentrations of Tl^+ and K^+ should be adjusted. Tl^+ concentration is approximately 0.5 mM -5 mM, and K^+ concentration is approximately 5 mM -30 mM.

[2] = biological target: T2, CYP1A2 (Homo sapiens, UniProt P05177); experiment: Drug-drug interaction evaluation: CYP inhibition in human liver microsomes (cocktail method)
T2 sequence (P05177 1-516): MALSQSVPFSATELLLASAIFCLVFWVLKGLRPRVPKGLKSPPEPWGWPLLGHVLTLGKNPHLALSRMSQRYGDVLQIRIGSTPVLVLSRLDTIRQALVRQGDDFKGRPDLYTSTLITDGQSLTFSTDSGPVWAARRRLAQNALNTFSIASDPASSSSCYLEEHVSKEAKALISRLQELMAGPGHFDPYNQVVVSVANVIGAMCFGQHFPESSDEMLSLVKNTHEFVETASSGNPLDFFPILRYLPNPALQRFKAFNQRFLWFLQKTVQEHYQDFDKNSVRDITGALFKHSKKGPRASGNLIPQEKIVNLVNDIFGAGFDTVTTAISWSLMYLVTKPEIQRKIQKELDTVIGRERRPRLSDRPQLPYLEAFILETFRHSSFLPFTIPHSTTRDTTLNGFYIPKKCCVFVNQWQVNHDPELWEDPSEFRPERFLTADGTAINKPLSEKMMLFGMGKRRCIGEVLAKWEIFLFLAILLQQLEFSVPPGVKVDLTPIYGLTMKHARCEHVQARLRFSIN
Experimental: (§1) The cocktail method using specific probe substrates for CYP1A2, CYP2C9, CYP2C19, CYP2D6 and CYP3A was used to evaluate the inhibitory effect of the compounds on the activity of human liver microsomal cytochrome P450 isoenzymes (CYP1A2, CYP2C9, CYP2C19, CYP2D6 and CYP3A).
(§2) Human liver microsomes, probe substrates, positive control inhibitors, and reduced nicotinamide adenine dinucleotide phosphate (NADPH).
(§3) To the corresponding wells of a reaction plate, 20 µL of substrate solution was added; to blank wells, 20 µL of potassium phosphate buffer was added.
(§4) To the corresponding wells, 2 µL of test compound and positive control working solution were added; to inhibitor-free and blank wells, 2 µL of solvent was added.
(§5) Human liver microsome working solution was prepared, and 158 µL of human liver microsome working solution was added to each well of the reaction plate.
(§6) The plate was pre-incubated at 37.0°C for 10 minutes.
(§7) To start the reaction, 20 µL of NADPH cofactor working solution was added to the reaction plate.
(§8) After incubation in a 37.0°C water bath with mixing for 10 minutes, 400 µL of stop solution was added to terminate the reaction.
(§9) The sample plate was centrifuged at 4000 rpm for 20 minutes.
(§10) 200 µL of supernatant was taken and mixed with 100 µL of pure water as diluent, and the plate was shaken to mix well.
(§11) Analysis was performed by liquid chromatography-tandem mass spectrometry (LC-MS/MS).
(§12) Using the percentage of remaining activity as the ordinate and the test compound concentration as the abscissa, a non-linear regression analysis was performed with a three-parameter or four-parameter model using XL fit software to calculate the IC50 value.
(§13) y = (max)/(1 + (((x)/(IC50)))^−hillslope) [formula]
(§14) y = min + (max−min)/(1 + (((x)/(IC50)))^−hillslope) [formula]
(§15) max = maximum enzyme activity; min = minimum enzyme activity; x = concentration of test compound or positive control inhibitor; y = enzyme activity at the corresponding concentration; hillslope = slope; IC50 = half-maximal inhibitory concentration. The four-parameter equation was used when the minimum enzyme activity was within ±10%; otherwise the three-parameter equation was used.

[3] = biological target: CYP2C19 (Homo sapiens, UniProt P33261); experiment: as above
Chain of CYP2C19 (P33261 whole entry): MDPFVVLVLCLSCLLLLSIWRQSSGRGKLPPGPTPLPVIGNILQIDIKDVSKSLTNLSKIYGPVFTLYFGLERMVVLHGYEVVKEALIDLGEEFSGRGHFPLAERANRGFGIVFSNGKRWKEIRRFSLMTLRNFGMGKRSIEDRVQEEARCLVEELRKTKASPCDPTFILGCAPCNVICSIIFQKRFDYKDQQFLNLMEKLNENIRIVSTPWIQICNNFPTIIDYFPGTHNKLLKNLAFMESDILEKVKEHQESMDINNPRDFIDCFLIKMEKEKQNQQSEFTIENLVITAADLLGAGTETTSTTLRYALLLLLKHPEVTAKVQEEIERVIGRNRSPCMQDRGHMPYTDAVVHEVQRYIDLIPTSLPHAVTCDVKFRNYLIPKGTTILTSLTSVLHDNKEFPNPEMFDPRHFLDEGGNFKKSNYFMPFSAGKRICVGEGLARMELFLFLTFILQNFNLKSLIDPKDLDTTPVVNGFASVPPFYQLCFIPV
Experimental: as §1, §2, §3, §4, §5, §6, §7, §8, §9, §10, §11, §12, §13, §14, §15

[4] = biological target: CYP2C9 (Homo sapiens, UniProt P11712); experiment: as above
Chain of CYP2C9 (P11712 whole entry): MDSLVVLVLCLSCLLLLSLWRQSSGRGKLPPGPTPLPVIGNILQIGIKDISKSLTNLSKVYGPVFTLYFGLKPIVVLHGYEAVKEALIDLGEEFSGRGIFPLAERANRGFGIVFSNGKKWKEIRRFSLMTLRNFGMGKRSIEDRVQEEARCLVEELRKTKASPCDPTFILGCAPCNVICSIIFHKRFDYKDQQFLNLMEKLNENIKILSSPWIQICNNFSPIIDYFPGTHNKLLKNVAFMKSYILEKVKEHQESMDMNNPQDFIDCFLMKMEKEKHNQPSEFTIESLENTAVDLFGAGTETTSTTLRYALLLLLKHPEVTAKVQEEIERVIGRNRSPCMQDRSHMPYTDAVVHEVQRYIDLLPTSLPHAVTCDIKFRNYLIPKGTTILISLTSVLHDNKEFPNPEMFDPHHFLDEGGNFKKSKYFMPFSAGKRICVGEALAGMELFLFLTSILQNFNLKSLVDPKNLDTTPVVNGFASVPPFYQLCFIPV
Experimental: as §1, §2, §3, §4, §5, §6, §7, §8, §9, §10, §11, §12, §13, §14, §15

[5] = biological target: CYP2D6 (Homo sapiens, UniProt P10635); experiment: as above
Chain of CYP2D6 (P10635 whole entry): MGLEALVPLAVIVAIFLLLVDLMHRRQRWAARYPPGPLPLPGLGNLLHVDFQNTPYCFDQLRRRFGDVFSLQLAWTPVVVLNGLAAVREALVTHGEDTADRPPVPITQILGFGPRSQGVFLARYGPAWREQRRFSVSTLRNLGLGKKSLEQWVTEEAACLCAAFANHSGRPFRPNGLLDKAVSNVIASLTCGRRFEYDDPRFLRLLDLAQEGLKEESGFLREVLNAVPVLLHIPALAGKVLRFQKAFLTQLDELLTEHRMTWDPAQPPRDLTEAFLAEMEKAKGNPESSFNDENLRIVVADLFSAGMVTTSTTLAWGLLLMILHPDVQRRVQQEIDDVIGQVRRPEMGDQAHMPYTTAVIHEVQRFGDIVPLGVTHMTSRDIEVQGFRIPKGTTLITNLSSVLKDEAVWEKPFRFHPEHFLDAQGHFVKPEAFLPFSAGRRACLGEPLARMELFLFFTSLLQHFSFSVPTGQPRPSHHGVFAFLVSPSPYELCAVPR
Experimental: as §1, §2, §3, §4, §5, §6, §7, §8, §9, §10, §11, §12, §13, §14, §15

[6] = biological target: CYP3A4 (Homo sapiens, UniProt P08684); experiment: as above
Chain of CYP3A4 (P08684 2-503): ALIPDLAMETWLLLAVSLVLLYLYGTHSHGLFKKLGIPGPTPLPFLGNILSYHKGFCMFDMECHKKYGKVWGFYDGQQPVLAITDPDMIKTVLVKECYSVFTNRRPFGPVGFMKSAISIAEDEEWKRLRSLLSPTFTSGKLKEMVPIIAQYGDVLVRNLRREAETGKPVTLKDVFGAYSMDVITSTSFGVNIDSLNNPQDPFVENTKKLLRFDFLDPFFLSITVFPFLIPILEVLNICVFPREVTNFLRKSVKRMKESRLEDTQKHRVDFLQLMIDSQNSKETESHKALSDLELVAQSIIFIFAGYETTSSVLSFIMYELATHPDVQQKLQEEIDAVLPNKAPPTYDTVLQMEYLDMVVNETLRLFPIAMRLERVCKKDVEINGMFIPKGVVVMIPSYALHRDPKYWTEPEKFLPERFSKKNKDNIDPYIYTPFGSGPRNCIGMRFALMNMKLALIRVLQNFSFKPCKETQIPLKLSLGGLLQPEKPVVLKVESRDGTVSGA
Experimental: as §1, §2, §3, §4, §5, §6, §7, §8, §9, §10, §11, §12, §13, §14, §15

[7] = Pharmacokinetic evaluation in mice (IV and PO); assay type: in vivo; details: mouse, plasma, CD-1 mice; for half-life: IV, read-out: Half-life T1/2 (IV) (converted); for AUC(0-t): PO, read-out: Area under the concentration-time curve AUC0-last PO; for bioavailability: read-out: Bioavailability F; for clearance: read-out: Clearance CL; for Cmax: read-out: Peak plasma concentration Cmax; for Vd: read-out: Volume of distribution Vdss
Experimental: Test Method 2: Pharmacokinetic Evaluation in Mice
Assay method: Test compounds were mixed with 5% DMSO / 60% polyethylene glycol (PEG400) / 35% water, vortexed and sonicated to obtain a clear 0.2 mg/mL solution, which was then filtered through a microporous membrane before use. Male CD-1 mice weighing 25-35 g were selected. The candidate compound solution was administered intravenously at a dose of 1 mg/kg. The candidate compound solution was orally administered at a dose of 5 mg/kg after fasting. Blood samples (25 µL each) were collected at 0.083, 0.25, 0.5, 1, 2, 4, 8, 12 and 24 hours after administration, and placed into commercial anticoagulant tubes pre-containing EDTA-K2. The tubes were centrifuged for 10 minutes to separate plasma, which was then stored at -60°C. The content of the target compound in plasma samples was determined by LC/MS/MS method, and pharmacokinetic parameters were calculated using Phoenix WinNonlin software (Pharsight, USA).
Tlast: time of the last detection point. AUC0-last: (Area Under the Concentration-Time Curve) refers to the area enclosed by the plasma drug concentration curve and the time axis. F (Bioavailability) is a measure of the rate and extent to which a drug is absorbed into the systemic circulation, serving as a critical indicator for evaluating the degree of drug absorption. […]

[8] = system: maximal electroshock-induced epilepsy model; experiment: Maximal electroshock-induced epilepsy model, behavioral pharmacodynamics; assay type: in vivo; details: dose 5 mg/kg, oral, one hour before electrical stimulation; male CD-1 mice
Text: Assay Example 2: Evaluation of the behavioral pharmacodynamics of the test compounds in a maximal electroshock-induced epilepsy model
This study used behavioral tests in male CD-1 mice to investigate the effects of test compounds on acute epileptic seizures behavior induced by maximal electroshock.
Male CD-1 mice (25 to 35g) were used as the experimental animals and fed with standard feed (Beijing Vital River Laboratory Animal Technology Co., Ltd.).
After arriving at the animal facility, the experimental animals needed to acclimatize for at least one week. The mice were observed daily for vital signs, and randomly divided into groups according to their body weights one day before the drug administration. One hour before the electrical stimulation, different dosages of the test compound were orally administered to each group. On the day of the assay, the male CD-1 mice in each group were anesthetized locally at the cornea with 2% lidocaine. Then, silver bipolar electrodes were used to electrically stimulate the cornea of the mice with 18 mA, 60 Hz, a pulse width of 0.6 ms, and a stimulation time of 1 s to induce seizures. Subsequently, the latency of seizures and the duration of limb rigidity in mice after the electrical stimulation were observed, and the protection rate from seizures for each group was statistically analyzed.

[9] = agonistic effect, CHO cells stably expressing hKCNQ2/3, FLIPR thallium flux, read-out: EC50

T1 sequence (O43526 whole entry): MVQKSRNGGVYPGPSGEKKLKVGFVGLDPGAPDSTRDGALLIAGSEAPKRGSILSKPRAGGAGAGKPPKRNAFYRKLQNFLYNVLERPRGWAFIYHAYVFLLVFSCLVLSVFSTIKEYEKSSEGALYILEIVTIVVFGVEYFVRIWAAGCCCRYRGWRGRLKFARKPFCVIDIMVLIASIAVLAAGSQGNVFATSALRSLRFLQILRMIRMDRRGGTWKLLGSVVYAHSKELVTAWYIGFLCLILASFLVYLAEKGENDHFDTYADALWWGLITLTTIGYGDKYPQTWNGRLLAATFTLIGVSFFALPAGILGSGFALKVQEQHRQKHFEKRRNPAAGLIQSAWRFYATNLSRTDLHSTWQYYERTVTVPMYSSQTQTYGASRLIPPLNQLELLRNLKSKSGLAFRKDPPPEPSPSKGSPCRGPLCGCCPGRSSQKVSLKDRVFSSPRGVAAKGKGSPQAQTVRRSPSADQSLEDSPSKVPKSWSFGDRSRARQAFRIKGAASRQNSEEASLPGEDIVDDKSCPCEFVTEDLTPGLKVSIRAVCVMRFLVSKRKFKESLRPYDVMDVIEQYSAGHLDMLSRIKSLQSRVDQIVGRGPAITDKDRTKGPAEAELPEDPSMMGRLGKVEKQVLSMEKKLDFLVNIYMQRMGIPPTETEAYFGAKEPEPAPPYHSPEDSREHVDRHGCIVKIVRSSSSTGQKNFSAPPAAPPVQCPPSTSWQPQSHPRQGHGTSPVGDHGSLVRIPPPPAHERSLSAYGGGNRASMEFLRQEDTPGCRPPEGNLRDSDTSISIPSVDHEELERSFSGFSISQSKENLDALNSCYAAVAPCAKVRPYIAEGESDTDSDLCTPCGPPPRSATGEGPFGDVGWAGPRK
T1 sequence (O43525 whole entry): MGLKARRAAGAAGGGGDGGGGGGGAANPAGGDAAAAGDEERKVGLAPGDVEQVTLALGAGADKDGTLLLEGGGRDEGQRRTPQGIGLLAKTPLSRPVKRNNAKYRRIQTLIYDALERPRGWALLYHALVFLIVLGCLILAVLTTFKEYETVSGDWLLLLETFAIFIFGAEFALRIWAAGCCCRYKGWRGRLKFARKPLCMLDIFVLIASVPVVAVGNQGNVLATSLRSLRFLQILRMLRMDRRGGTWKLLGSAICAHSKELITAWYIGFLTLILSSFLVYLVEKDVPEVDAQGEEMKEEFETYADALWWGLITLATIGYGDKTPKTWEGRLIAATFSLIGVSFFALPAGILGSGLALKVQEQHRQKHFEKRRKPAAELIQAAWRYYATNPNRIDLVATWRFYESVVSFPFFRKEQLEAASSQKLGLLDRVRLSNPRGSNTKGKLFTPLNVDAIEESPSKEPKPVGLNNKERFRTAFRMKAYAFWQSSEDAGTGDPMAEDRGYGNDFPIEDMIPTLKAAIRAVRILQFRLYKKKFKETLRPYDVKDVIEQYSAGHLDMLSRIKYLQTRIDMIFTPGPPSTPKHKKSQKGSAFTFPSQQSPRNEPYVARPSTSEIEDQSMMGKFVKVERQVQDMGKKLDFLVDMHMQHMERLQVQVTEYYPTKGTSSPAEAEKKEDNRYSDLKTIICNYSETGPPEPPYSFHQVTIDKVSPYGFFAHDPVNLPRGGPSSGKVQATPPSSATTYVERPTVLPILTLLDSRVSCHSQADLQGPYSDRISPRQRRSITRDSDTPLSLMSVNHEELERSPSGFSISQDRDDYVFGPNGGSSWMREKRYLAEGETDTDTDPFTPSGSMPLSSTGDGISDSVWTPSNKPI

SMILES: Cc1c(NC(=O)CC(C)(C)C)n(C)c2cc(Nc3ncc(F)cc3F)ccc12 [Compound 26]
EC50 [1]: 400 nM
IC50 [2]: 19 µM
IC50 [3]: 44 µM
IC50 [4]: > 50 µM
IC50 [5]: > 50 µM
IC50 [6]: > 50 µM

SMILES: Cc1c(NC(=O)CC2(C)CC2)n(C)c2cc(Nc3ncc(F)cc3F)ccc12 [Compound 35]
EC50 [1]: 490 nM
IC50 [2]: > 50 µM
IC50 [3]: > 50 µM
IC50 [4]: > 50 µM
IC50 [5]: > 50 µM
IC50 [6]: > 50 µM

SMILES: Cc1c(NC(=O)C2CC2)n(C)c2cc(Nc3ccc(F)cc3)ccc12 [Compound 13]
EC50 [1, 9]: 500 nM

SMILES: CC(C)(C)CC(=O)Nc1nc2c(F)cc(Nc3ccc(F)cc3)cc2n1C1CCC1 [Compound 4]
half-life ([7]; dose IV:0.5, PO:2 mg/kg): 72 min
AUC(0-t) ([7]; dose IV:0.5, PO:2 mg/kg): 2.98 µM·h
bioavailability ([7]; dose IV:0.5, PO:2 mg/kg): 64.2%
clearance ([7]; dose IV:0.5, PO:2 mg/kg): 17.9 mL/min/kg
Cmax ([7]; dose IV:0.5, PO:2 mg/kg): 548 nM
Vd ([7]; dose IV:0.5, PO:2 mg/kg): 2.14 L/kg

SMILES: Cc1nc(Nc2ccc3c(C)c(NC(=O)CC4(C)CC4)n(C)c3c2)ccc1F [Compound 36]
EC50 [1]: 220 nM
Seizure incidence (%) [8]: 0%
half-life ([7]; dose IV:1, PO:5 mg/kg): 102 min
AUC(0-t) ([7]; dose IV:1, PO:5 mg/kg): 29.5 µM·h
bioavailability ([7]; dose IV:1, PO:5 mg/kg): 92.7%
clearance ([7]; dose IV:1, PO:5 mg/kg): 6.9 mL/min/kg
Cmax ([7]; dose IV:1, PO:5 mg/kg): 4750 nM
Vd ([7]; dose IV:1, PO:5 mg/kg): 0.8 L/kg

SMILES: CCC(=O)Nc1c(C)c2ccc(Nc3ccc(F)cc3)cc2n1C [Compound 16]
EC50 [1, 9]: 700 nM

SMILES: Cc1c(NC(=O)CC(C)(C)C)n(C)c2cc(Nc3ccc(F)cn3)ccc12 [Compound 11]
EC50 [1]: 200 nM
half-life ([7]; dose IV:0.5, PO:2 mg/kg): 42 min
AUC(0-t) ([7]; dose IV:0.5, PO:2 mg/kg): 1.11 µM·h
bioavailability ([7]; dose IV:0.5, PO:2 mg/kg): 62.2%
clearance ([7]; dose IV:0.5, PO:2 mg/kg): 50.3 mL/min/kg
Cmax ([7]; dose IV:0.5, PO:2 mg/kg): 524 nM
Vd ([7]; dose IV:0.5, PO:2 mg/kg): 2 L/kg

SMILES: Cc1c(NC(=O)CC(C)(C)C)n(C)c2cc(Nc3ncc(F)cn3)ccc12 [Compound 38]
EC50 [1, 9]: 820 nM

Continued, values first:

EC50 [1, 9]: 560 nM
SMILES: Cc1c(NC(=O)CC2(C)CC2)n(C)c2cc(Nc3ccc(F)cn3)ccc12 [Compound 28]

EC50 [1, 9]: 220 nM
SMILES: Cc1c(NC(=O)C2CCCC2)n(C)c2cc(Nc3ccc(F)cn3)ccc12 [Compound 21]

EC50 [1, 9]: 430 nM
SMILES: Cc1c(NC(=O)C2CCC2)n(C)c2cc(Nc3ccc(F)cn3)ccc12 [Compound 22]

EC50 [1, 9]: 410 nM
SMILES: Cc1ccc(Nc2ccc3c(C)c(NC(=O)CC(C)(C)C)n(C)c3c2)nc1 [Compound 29]

EC50 [1, 9]: 210 nM
SMILES: Cc1c(NC(=O)CC(C)(C)C)n(C)c2cc(Nc3ccc(Cl)cn3)ccc12 [Compound 30]
